How the values were obtained:
[1] = biological target: T1, human acetylcholinesterase (Homo sapiens, UniProt P22303); test: Eurofins selectivity panel: acetylcholinesterase; type: biochemical
T1 construct: purchased Eurofins Inc

ChAT protein = ChAT protein in iPSC-derived motor neurons (western blot); type: cell-based, human; settings: iPSC-derived motor neurons (GM24468), 3 days
Method: GM03813 fibroblasts and GM24468-derived MNs were seeded at 1.5 × 10^4 and 4 × 10^4 cells/well in 96-well plates and were treated with TEC-1 or SMN-C3 for 72 h at the concentration of 0.01, 0.03, 0.1, 0.3, 1, or 3 µM. After 72 h exposure of compound, GM24468 derived MNs and GM03813 fibroblasts were washed once with D-PBS (-), lysed with RIPA buffer (Wako) containing cOmplete (Sigma-Aldrich) and PhosSTOP (Sigma-Aldrich). The lysates were spun at 15,000 rpm for 15 min at 4 °C, and the supernatants were collected. The protein concentration was quantified with BCA kit (Wako). The lysates, adjusted to have the same protein amount, were mixed with NuPAGE LDS sample buffer containing DTT and heated at 95 °C for 5 min. Except for HTT detection, each sample (2 µg total protein/lane) was loaded Perfect NT Gel 7.5–15% gel (DRC, Japan) and run at 150 V for 60–70 min with Tris/glycine/SDS running buffer (BIO-RAD, USA). The proteins were transferred from the gel to Immobilon-P PVDF Membrane (Millipore, USA) with a transfer solution comprising 10% methanol and 1 × Novex Tris-glycine transfer buffer at 25 V for 180–240 min using Criterion blotter (BIO-RAD). […] After washing with TBS-T four times, chemiluminescence signals were detected by Immunostar Zeta (Wako) and LAS-4000 (GE healthcare).

T1 sequence (P22303 32-614): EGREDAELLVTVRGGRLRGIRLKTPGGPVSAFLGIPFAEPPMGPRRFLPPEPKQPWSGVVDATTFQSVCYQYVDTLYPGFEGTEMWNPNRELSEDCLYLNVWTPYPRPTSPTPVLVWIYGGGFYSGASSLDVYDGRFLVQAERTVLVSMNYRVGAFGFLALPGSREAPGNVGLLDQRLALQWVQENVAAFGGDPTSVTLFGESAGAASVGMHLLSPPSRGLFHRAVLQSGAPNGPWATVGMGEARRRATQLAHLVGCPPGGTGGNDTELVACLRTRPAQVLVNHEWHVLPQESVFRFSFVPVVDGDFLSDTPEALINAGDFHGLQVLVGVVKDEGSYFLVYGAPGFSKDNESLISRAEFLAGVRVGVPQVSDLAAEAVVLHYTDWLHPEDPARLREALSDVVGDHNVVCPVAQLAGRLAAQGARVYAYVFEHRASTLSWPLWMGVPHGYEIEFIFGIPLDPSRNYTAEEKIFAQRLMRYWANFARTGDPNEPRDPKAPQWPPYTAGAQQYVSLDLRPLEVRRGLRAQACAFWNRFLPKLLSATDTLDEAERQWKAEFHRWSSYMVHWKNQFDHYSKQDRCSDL

Cc1cn2nc(-c3nc4ccc(N5CCN(C)CC5)cc4c(=O)[nH]3)cc2c(C)n1 [TEC-1, 2-(4,6-dimethylpyrazolo[1,5-a]pyrazin-2-yl)-6-(4-methylpiperazin-1-yl)quinazolin-4(3H)-one]
IC50 [1]: 1.19 µM
ChAT protein level (ChAT protein): increase the levels of choline acetyltransferase (ChAT)

From publication PMC7562719, “Discovery of a CNS penetrant small molecule SMN2 splicing modulator with improved tolerability for spinal muscular atrophy” (Scientific Reports, 2020)
